Values of other authors, collected in patent US20050240051A1, “Dispersing agent or solubilizing agent containing calixarene compound” (Ajinomoto Co., Inc., priority 2002, published 2005).

c12c3c4c5c1c1c6c7c2c2c8c3c3c9c4c4c%10c5c5c1c1c6c6c%11c7c2c2c7c8c3c3c8c9c4c4c9c%10c5c5c1c1c6c6c%11c2c2c7c3c3c8c4c4c9c5c1c1c6c2c3c41 [fullerene]
solubility in hydrocarbon solvents and alcohol solvents: not more than 0.1 mg/ml | solubility in toluene: about 3 mg/ml | solubility in 1-methylnaphthalene (at around normal temperature): about 33 mg/ml
